These results are taken from ChEMBL document CHEMBL1158716, “Sesquiterpenoids and plasmin-inhibitory flavonoids from Blumea balsamifera” (J Nat Prod, 2005).

Each structure is given as a SMILES string.

Assay [1] has as its target Plasminogen (Homo sapiens, UniProt P00747). The experiment in a line: Inhibition of plasmin.
The subject of assay [2] is Jurkat. The experiment in a line: Cytotoxicity against human Jurkat cells. It counts as functional, cell-based.

Sequence of Plasminogen (P00747 97-580 limits assumed): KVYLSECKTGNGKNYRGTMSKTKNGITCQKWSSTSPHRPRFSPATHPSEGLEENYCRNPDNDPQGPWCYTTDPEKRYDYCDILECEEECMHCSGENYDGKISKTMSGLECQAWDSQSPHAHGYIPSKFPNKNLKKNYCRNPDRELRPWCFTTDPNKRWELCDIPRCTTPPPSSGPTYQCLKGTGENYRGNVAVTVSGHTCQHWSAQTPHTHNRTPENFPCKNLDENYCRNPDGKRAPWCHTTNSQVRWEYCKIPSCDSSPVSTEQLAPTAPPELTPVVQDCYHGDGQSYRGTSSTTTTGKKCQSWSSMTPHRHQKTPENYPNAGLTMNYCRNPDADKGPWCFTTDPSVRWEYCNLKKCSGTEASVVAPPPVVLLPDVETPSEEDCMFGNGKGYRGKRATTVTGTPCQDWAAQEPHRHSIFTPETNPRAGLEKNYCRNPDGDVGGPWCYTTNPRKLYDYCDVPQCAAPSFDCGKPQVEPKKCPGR
Sequence of Plasminogen (P00747 581-810 limits assumed): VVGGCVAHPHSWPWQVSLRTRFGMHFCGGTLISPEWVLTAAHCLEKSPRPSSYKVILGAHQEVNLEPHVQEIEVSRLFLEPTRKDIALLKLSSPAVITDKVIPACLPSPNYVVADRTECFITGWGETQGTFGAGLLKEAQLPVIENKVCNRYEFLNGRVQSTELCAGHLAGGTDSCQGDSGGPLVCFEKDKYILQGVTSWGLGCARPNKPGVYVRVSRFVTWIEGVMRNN

As for `COc1cc(O)c2c(=O)c(OC)c(-c3ccc(O)c(O)c3)oc2c1`, in assay [1], the IC50 (usually the concentration needed to halve the response being measured) was determined as 1.5 µM.

Molecule `COc1cc(O)c2c(=O)cc(-c3ccc(O)c(O)c3)oc2c1` had an IC50 in assay [1] of 2.3 µM.

The molecule `C/C1=C\C(=O)[C@@H](C(C)C)C[C@@H](OC(=O)[C@]2(C)O[C@@H]2C)[C@](C)(O)C(=O)CC1` registered an IC50 in assay [2] of 26.2 µM. This counts as double-digit micromolar.

Take `C=C1CC[C@@]2(O)[C@H]1C(=O)[C@@H](C(C)C)C[C@@H](OC(=O)/C(C)=C\C)[C@]2(C)O`: in assay [2], the half-inhibitory concentration (IC50) was more than 70 µM.

For the molecule `CC(=O)N[C@@H](CC(C)C)C(=O)N[C@@H](CC(C)C)C(=O)N[C@H](C=O)CCCNC(=N)N` [LEUPEPTIN], the IC50 in assay [1] turned out to be 1.2 µM.
